Results reported in PubChem BioAssay (NCI).
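Assay format: 96-well plates, 48-hour exposure. TGI denotes the concentration required for complete inhibition of growth.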

Tests used:
Assay in all cases: NCI anticancer screen, dose series, 48 h
KM12 colon = tested on: KM12 colon
OVCAR-5 ovarian = tested on: OVCAR-5 ovarian
OVCAR-4 ovarian = tested on: OVCAR-4 ovarian
BT-549 breast = tested on: BT-549 breast
A549 NSCLC = tested on: A549 NSCLC
SK-MEL-2 melanoma = tested on: SK-MEL-2 melanoma
RPMI-8226 leukemia = tested on: RPMI-8226 leukemia
MALME-3M melanoma = tested on: MALME-3M melanoma
HOP-62 NSCLC = tested on: HOP-62 NSCLC
RXF 393 renal = tested on: RXF 393 renal
IGROV1 ovarian = tested on: IGROV1 ovarian
ACHN renal = tested on: ACHN renal
SR leukemia = tested on: SR leukemia
K-562 leukemia = tested on: K-562 leukemia
UACC-257 melanoma = tested on: UACC-257 melanoma
OVCAR-8 ovarian = tested on: OVCAR-8 ovarian
HL-60(TB) leukemia = tested on: HL-60(TB) leukemia
UO-31 renal = tested on: UO-31 renal
MCF7 breast = tested on: MCF7 breast
CCRF-CEM leukemia = tested on: CCRF-CEM leukemia

Row | Structure (SMILES) | TGI (KM12 colon) | TGI (OVCAR-5 ovarian) | TGI (OVCAR-4 ovarian) | TGI (BT-549 breast) | TGI (A549 NSCLC) | TGI (SK-MEL-2 melanoma) | TGI (RPMI-8226 leukemia) | TGI (MALME-3M melanoma) | TGI (HOP-62 NSCLC) | TGI (RXF 393 renal) | TGI (IGROV1 ovarian) | TGI (ACHN renal) | TGI (SR leukemia) | TGI (K-562 leukemia) | TGI (UACC-257 melanoma) | TGI (OVCAR-8 ovarian) | TGI (HL-60(TB) leukemia) | TGI (UO-31 renal) | TGI (MCF7 breast) | TGI (CCRF-CEM leukemia)
1 | Cc1cc(C2(c3cc(C)c(O)c(C(=O)O)c3)OS(=O)(=O)c3ccccc32)cc(C(=O)O)c1O | > 100 µM | > 100 µM | > 100 µM | > 100 µM | > 100 µM | > 100 µM | > 100 µM | > 100 µM | > 100 µM | > 100 µM | > 100 µM | > 100 µM | > 100 µM | > 100 µM | > 100 µM | > 100 µM | > 100 µM | > 100 µM | > 100 µM | 
2 | CC(C)(C)OC(=O)CN1CCNCCN(CC(=O)OC(C)(C)C)CC1 | > 100 µM | > 100 µM | > 100 µM | > 100 µM | > 100 µM | > 100 µM | > 100 µM | > 100 µM | > 100 µM |  | > 100 µM | > 100 µM | > 100 µM | > 100 µM | > 100 µM | > 100 µM | 86.1 µM | > 100 µM | > 100 µM | > 100 µM
3 | Cc1cc(C)c(C)c(-n2[nH]c(=O)n(C)c2=O)c1C | > 100 µM | > 100 µM |  | > 100 µM | > 100 µM | > 100 µM | > 100 µM |  | > 100 µM |  | > 100 µM | > 100 µM | > 100 µM | > 100 µM | > 100 µM | > 100 µM | > 100 µM | > 100 µM | > 100 µM | > 100 µM
4 | Clc1ncnc2c1nc(C#Cc1ccccc1)n2Cc1ccccc1 | > 100 µM | > 100 µM | 35.8 µM | 49.8 µM | > 100 µM | 98.4 µM |  | > 100 µM | > 100 µM | 48 µM |  | > 100 µM | > 100 µM | > 100 µM | 74.7 µM | 53.9 µM | > 100 µM | 5.47 µM | > 100 µM | > 100 µM
5 | CC(C)CNC(=O)Cn1c2c(c3ccccc31)CCCC2 |  | > 100 µM | > 100 µM | > 100 µM | > 100 µM | > 100 µM | > 100 µM | > 100 µM | > 100 µM |  | > 100 µM | > 100 µM | > 100 µM | > 100 µM | > 100 µM | > 100 µM | > 100 µM | > 100 µM | > 100 µM | > 100 µM
6 | COc1ccc(/C=C(\NC(=O)c2ccccc2)C(=O)NN(C)c2ccnc3cc(Cl)ccc23)cc1OC | 34.7 µM | > 100 µM | 90.5 µM | 39.5 µM | 97.1 µM | 46 µM | 45.3 µM | 72.5 µM | > 100 µM | 38.4 µM | 47.6 µM | 79 µM | 41.3 µM | 51.2 µM | 79.1 µM | 46.8 µM |  | 80.4 µM | 46.3 µM | 
7 | O=C1N[C@@H]([C@H](CCCCCO)OC(=O)c2ccccc2)CO1 | > 100 µM | > 100 µM | > 100 µM | > 100 µM | > 100 µM | > 100 µM | > 100 µM |  | > 100 µM | > 100 µM | > 100 µM | > 100 µM | > 100 µM | > 100 µM | > 100 µM | > 100 µM | > 100 µM | > 100 µM | > 100 µM | > 100 µM
8 | O=C1C(N=Nc2ccc(-c3nc4ccccc4o3)cc2)NC(=S)N1c1ccccc1 (stereo unspecified) | > 100 µM | > 100 µM | > 100 µM | > 100 µM | > 100 µM | > 100 µM |  | > 100 µM | > 100 µM | > 100 µM | > 100 µM | > 100 µM | 85.6 µM | > 100 µM | > 100 µM | > 100 µM | 0.742 µM | > 100 µM | > 100 µM | 0.679 µM
9 | NC(N)=NC(N)=Nc1c(F)c(F)c(F)c(F)c1F | > 100 µM | > 100 µM | > 100 µM | > 100 µM | > 100 µM | > 100 µM | > 100 µM | > 100 µM | > 100 µM | > 100 µM | > 100 µM | > 100 µM | > 100 µM | > 100 µM | > 100 µM | > 100 µM |  | > 100 µM | > 100 µM | 
10 | CC1CC/C(=C\c2ccc(N(C)C)cc2)C(=O)/C1=C/c1ccc(N(C)C)cc1 (stereo unspecified) | > 100 µM | > 100 µM | > 100 µM | > 100 µM | > 100 µM | > 100 µM |  | > 100 µM | > 100 µM |  | > 100 µM | > 100 µM | > 100 µM | > 100 µM | > 100 µM | > 100 µM |  | > 100 µM | > 100 µM | > 100 µM
11 | O=C(NCCNCCO)N/N=C/c1ccc([N+](=O)[O-])cc1 | > 100 µM | > 100 µM |  | > 100 µM | > 100 µM | > 100 µM |  | > 100 µM | > 100 µM |  | > 100 µM | > 100 µM | > 100 µM | > 100 µM | > 100 µM | > 100 µM | > 100 µM | > 100 µM | > 100 µM | > 100 µM
12 | COc1cc(/C=C/C2=NN(c3cccc(S(=O)(=O)O)c3)C3(C2)C(Cl)C(=O)N3c2nc3ccccc3s2)ccc1O (stereo unspecified) | 41.2 µM | 37.9 µM | 30.4 µM | 29.1 µM | > 100 µM | > 100 µM | 37.6 µM | 34.5 µM |  | > 100 µM | 31.5 µM | 30.9 µM | 34.8 µM | 61.9 µM | 42.6 µM | 40.8 µM | 42.5 µM | 33.6 µM | > 100 µM | 42.2 µM
13 | CN(C)c1ccc(/C=C/c2cc[n+](C)c3ccccc23)cc1 | 10.7 µM | 24.9 µM | 21.4 µM | 8.44 µM | > 90.8 µM | 6.37 µM | 21.5 µM | 17.1 µM | 16.3 µM | 32.8 µM | 21 µM | 36.5 µM | 6.51 µM | > 45.1 µM | 8.57 µM | 10.1 µM |  | > 73.3 µM | 7.75 µM | > 61.9 µM
14 | N#Cc1ccc(OCc2ccc3nc(-c4ccccc4)c(Cl)nc3c2)cc1 | > 100 µM | > 100 µM | > 100 µM | > 100 µM | > 100 µM | > 100 µM | > 100 µM | > 100 µM | > 100 µM |  | > 100 µM | > 100 µM | > 100 µM |  | > 100 µM | > 100 µM | > 100 µM | > 100 µM | > 100 µM | > 100 µM
15 | COc1ccc(NCC(=O)Nn2c(C)nc3ccc(S(=O)(=O)Nc4ccc(OC)cc4)cc3c2=O)cc1 | > 100 µM | > 100 µM | > 100 µM | > 100 µM | > 100 µM | > 100 µM | > 100 µM | > 100 µM | > 100 µM |  | > 100 µM | > 100 µM | > 100 µM | > 100 µM | > 100 µM | > 100 µM | > 100 µM | > 100 µM | > 100 µM | > 100 µM
16 | CCOC(=O)C(NC(=O)NC(C(=O)OCC)C(=O)OCC)C(=O)OCC |  | > 100 µM |  | > 100 µM | > 100 µM | > 100 µM | > 100 µM | > 100 µM | > 100 µM | > 100 µM | > 100 µM | > 100 µM | > 100 µM | > 100 µM |  | > 100 µM |  | > 100 µM | > 100 µM | 
17 | Cc1ccc(C(=O)C#Cc2cn(C3CC(O)C(CO)O3)c(=O)[nH]c2=O)cc1 (stereo unspecified) | > 100 µM |  | > 100 µM | > 100 µM | > 100 µM | > 100 µM | > 100 µM | 29.1 µM | > 100 µM | > 100 µM | > 100 µM | > 100 µM | > 100 µM |  | > 100 µM | > 100 µM |  | > 100 µM | > 100 µM | 
18 | CSCC[C@H]1C(=O)N=C(N)N1C(=O)OCc1ccccc1 | > 100 µM | > 100 µM | > 100 µM | 60.9 µM |  | > 100 µM | > 100 µM | > 100 µM | > 100 µM | 45.6 µM | > 100 µM | > 100 µM | 55.8 µM | 71.9 µM | > 100 µM | > 100 µM | 44.8 µM | > 100 µM | > 100 µM | 
19 | CCOC(=O)COc1ccc(/C=C/C(=O)c2ccc(OC)cc2)cc1 | > 100 µM | > 100 µM |  | > 100 µM | > 100 µM | 85.8 µM | > 100 µM | 92.7 µM | 53.3 µM | 46 µM | > 100 µM | > 100 µM | 87.4 µM | > 100 µM | 57.3 µM | > 100 µM | > 100 µM | 45.4 µM | > 100 µM | > 100 µM
20 | COc1ccc(-c2c(C#N)c(S)n(C3OC(CO)C(O)C(O)C3O)c(=O)c2C#N)cc1 (stereo unspecified) | > 100 µM | > 100 µM |  | > 100 µM | > 100 µM | > 100 µM | > 100 µM | > 100 µM | > 100 µM | > 100 µM | > 100 µM | > 100 µM | > 100 µM | > 100 µM | > 100 µM | > 100 µM | > 100 µM | > 100 µM | > 100 µM | > 100 µM
